Among the data in the PolyMetriX glass transition set are glass transition temperature values, retold here.

For the compound `*C(=O)c1ccc(Oc2ccc(Oc3ccc(C(=O)c4ccc5c(c4)C(=O)N(c4ccc(Cc6ccc(N7C(=O)c8ccc(*)cc8C7=O)cc6)cc4)C5=O)cc3)cc2)cc1` (repeat unit), the glass transition temperature stood at 225.00 °C. The same measure for `*C(=O)c1ccc(Oc2ccc(S(=O)(=O)c3ccc(Oc4ccc(C(=O)c5ccc6c(c5)C(=O)N(c5ccc(Cc7ccc(N8C(=O)c9ccc(*)cc9C8=O)cc7)cc5)C6=O)cc4)cc3)cc2)cc1` (repeat unit): 245.00 °C. On to `*C(=O)c1ccc2c(c1)C(=O)N(c1ccc(CP(=O)(OCCCl)OCCCl)c(N3C(=O)c4ccc(*)cc4C3=O)c1)C2=O` (repeat unit), for which the glass transition temperature was found to be 261.00 °C.

In turn, `*C(=O)c1ccc2c(c1)C(=O)N(c1ccc(Cc3ccc(Cc4ccc(Cc5ccc(N6C(=O)c7ccc(*)cc7C6=O)cc5)cc4)cc3)cc1)C2=O` (repeat unit) had a glass transition temperature of 302.00 °C. On to `*C(=O)c1ccc2c(c1)C(=O)N(c1ccc(Oc3c(C)cc(C(c4cc(C)c(Oc5ccc(N6C(=O)c7ccc(*)cc7C6=O)cc5)c(C)c4)c4cccc5ccccc45)cc3C)cc1)C2=O` (repeat unit), for which the glass transition temperature is 272.00 °C.

The compound `*CC(O)COc1ccc(C(C)(C)c2ccc(OCC(O)COc3c(C)cc(S(=O)(=O)c4cc(C)c(O*)c(C)c4)cc3C)cc2)cc1` (repeat unit) gave a glass transition temperature of 137.50 °C. Consider `*OP(=O)(Oc1ccc(Br)cc1)Oc1c(C)cc(S(=O)(=O)c2cc(C)c(*)c(C)c2)cc1C` (repeat unit), for which the glass transition temperature was determined as 162.00 °C.

In turn, `*O[Si](C)(C)c1ccc([Si](C)(C)Oc2c(C)cc(-c3cc(C)c(*)c(C)c3)cc2C)cc1` (repeat unit) yielded a glass transition temperature of 67.00 °C. The result for `*Oc1c(C)cc(-c2cc(C)c(Oc3ccc(C(=O)c4ccc5cc(C(=O)c6ccc(*)cc6)ccc5c4)cc3)c(C)c2)cc1C` (repeat unit) reads 270.00 °C; that for `*Oc1c(C)cc(-c2cc(C)c(Oc3ccc(C(=O)c4ccccc4-c4ccccc4C(=O)c4ccc(*)cc4)cc3)c(C)c2)cc1C` (repeat unit), 233.00 °C.

Take `*Oc1c(C)cc(C(C)(C)c2cc(C)c(OC(*)=O)c(C)c2)cc1C` (repeat unit): the glass transition temperature came to 193.00 °C. With `*Oc1c(C)cc(C(C)(C)c2cc(C)c(OC(=O)c3ccc(C(*)=O)cc3)c(C)c2)cc1C` (repeat unit), the glass transition temperature turned out to be 239.00 °C. On to `*Oc1c(C)cc(C(C)(C)c2cc(C)c(ON3C(=O)c4ccc(Oc5ccc(C6(c7ccc(Oc8ccc9c(c8)C(=O)N(*)C9=O)cc7)CCC(C(C)(C)C)CC6)cc5)cc4C3=O)c(C)c2)cc1C` (repeat unit), for which the glass transition temperature stood at 248.00 °C. The same measure for `*Oc1c(C)cc(C2(c3cc(C)c(OC(=O)c4ccc(C(*)=O)cc4)c(C)c3)CCC3CCCCC3C2)cc1C` (repeat unit): 287.00 °C. `*Oc1c(C)cc(C2(c3cc(C)c(Oc4ccc(C(=O)c5cccc(C(=O)c6ccc(*)cc6)c5)cc4)c(C)c3)CCC3CCCCC3C2)cc1C` (repeat unit) yielded a glass transition temperature of 224.00 °C. In the case of `*Oc1ccc(S(=O)(=O)c2ccc(Oc3c(C)cc(C(C)(C)c4cc(C)c(*)c(C)c4)cc3C)cc2)cc1` (repeat unit), the glass transition temperature stood at 231.30 °C. Consider `*Oc1ccc(S(=O)(=O)c2ccc(Oc3c(C)cc(C(c4cc(C)c(*)c(C)c4)(C(F)(F)F)C(F)(F)F)cc3C)cc2C(O)(C(F)(F)F)C(F)(F)F)c(C(O)(C(F)(F)F)C(F)(F)F)c1` (repeat unit), for which the glass transition temperature is 196.00 °C. The result for `*Oc1ccc(S(=O)(=O)c2ccc(Oc3c(C)cc(C(c4cc(C)c(*)c(C)c4)(C(F)(F)F)C(F)(F)F)cc3C)cc2[Si](C)(C)C)c([Si](C)(C)C)c1` (repeat unit) reads 197.00 °C; that for `*c1c(C)cc(-c2cc(C)c(N3C(=O)c4ccc(Oc5cc6ccccc6cc5Oc5ccc6c(c5)C(=O)N(*)C6=O)cc4C3=O)c(C)c2)cc1C` (repeat unit), 308.00 °C; that for `*c1c(C)cc(-c2cc(C)c(N3C(=O)c4cccc(Oc5ccc(C(C)(C)c6ccc(Oc7cccc8c7C(=O)N(*)C8=O)cc6)cc5)c4C3=O)c(C)c2)cc1C` (repeat unit), 265.00 °C. The result for `*c1c(C)cc(C(c2cccc(C(F)(F)F)c2)c2cc(C)c(N3C(=O)c4ccc(Oc5ccc6c(c5)C(=O)N(*)C6=O)cc4C3=O)c(C)c2)cc1C` (repeat unit) reads 264.10 °C; that for `*c1c(C)cc(Cc2cc(C)c(N3C(=O)c4cccc(Oc5c(C)cc(-c6cc(C)c(Oc7cccc8c7C(=O)N(*)C8=O)c(C)c6)cc5C)c4C3=O)c(C)c2)cc1C` (repeat unit), 289.00 °C; that for `*c1cc(Oc2c(C)cc(-c3cc(C)c(Oc4cc(N5C(=O)c6ccc(Oc7ccc8c(c7)C(=O)N(*)C8=O)cc6C5=O)cc(C(F)(F)F)c4)c(C)c3)cc2C)cc(C(F)(F)F)c1` (repeat unit), 252.20 °C. `*c1ccc(C(=O)Oc2c(C)cc(C(c3cccnc3)c3cc(C)c(OC(=O)c4ccc(N5C(=O)CC(Nc6cccc(NC7CC(=O)N(*)C7=O)c6)C5=O)cc4)c(C)c3)cc2C)cc1` (repeat unit): the glass transition temperature worked out at 194.00 °C.

`*c1ccc(Oc2c(C)cc(C(c3cc(C)c(Oc4ccc(N5C(=O)c6ccc(-c7ccc8c(c7)C(=O)N(*)C8=O)cc6C5=O)cc4)c(C)c3)c3cccc4ccccc34)cc2C)cc1` (repeat unit) gave a glass transition temperature of 289.50 °C. The result for `*c1ccc(Oc2c(C)cc(C(c3cccnc3)c3cc(C)c(Oc4ccc(N5C(=O)CC(Nc6cccc(NC7CC(=O)N(*)C7=O)c6)C5=O)cc4)c(C)c3)cc2C)cc1` (repeat unit) reads 217.00 °C; that for `*c1ccc(Oc2ccc(C(c3ccc(Oc4ccc(N5C(=O)c6ccc(Oc7c(C)cc(C(C)(C)c8cc(C)c(Oc9ccc%10c(c9)C(=O)N(*)C%10=O)c(C)c8)cc7C)cc6C5=O)cc4)cc3)(C(F)(F)F)C(F)(F)F)cc2)cc1` (repeat unit), 244.00 °C; that for `*c1ccc(Oc2ccc(C3(c4ccc(Oc5ccc(N6C(=O)c7ccc(Oc8c(C)cc(C(C)(C)c9cc(C)c(Oc%10ccc%11c(c%10)C(=O)N(*)C%11=O)c(C)c9)cc8C)cc7C6=O)cc5)cc4)C4CC5CC(C4)CC3C5)cc2)cc1` (repeat unit), 282.00 °C. `*c1ccc2c(c1)C(=O)N(c1c(C)cc(C(c3cc(C)c(N4C(=O)c5ccc(C(*)(C(F)(F)F)C(F)(F)F)cc5C4=O)c(C)c3)c3cccc4ccccc34)cc1C)C2=O` (repeat unit) had a glass transition temperature of 314.00 °C. On to `*c1ccc2c(c1)C(=O)N(c1c(C)cc(C(c3cccc(C(F)(F)F)c3)c3cc(C)c(N4C(=O)c5ccc(C(*)(C(F)(F)F)C(F)(F)F)cc5C4=O)c(C)c3)cc1C)C2=O` (repeat unit), for which the glass transition temperature came out at 286.10 °C. Turning to `*c1ccc2c(c1)C(=O)N(c1ccc(Oc3c(C)cc(C(c4cc(C)c(Oc5ccc(N6C(=O)c7ccc(C(*)(C(F)(F)F)C(F)(F)F)cc7C6=O)cc5)c(C)c4)c4cccc5ccccc45)cc3C)cc1)C2=O` (repeat unit), the glass transition temperature stood at 308.00 °C. The same measure for `*c1cccc(N2C(=O)c3cccc(Oc4c(C)cc(-c5cc(C)c(Oc6cccc7c6C(=O)N(*)C7=O)c(C)c5)cc4C)c3C2=O)c1` (repeat unit): 311.00 °C.
